Test results taken from patent publication US20210322508A1, “PEPTIDES AND COMPOSITIONS FOR TARGETED TREATMENT AND IMAGING” (SIGNABLOK, INC., priority 2018, published 2021).
Non-standard residues stand in square brackets, D forms with d. Residues, ends and D or L forms follow the SMILES beside them. No end group written: not given here. Met(O) = CS(=O)CC[C@H](N)C(=O)O; PTX = not defined here

Tests used:
J774 macrophages = assay: in vitro macrophage uptake (endocytosis) of rho B-labeled peptides and lipopeptide complexes; format: cell-based, murine; settings: 1 h pretreatment: 40 μM cytochalasin D, 400 μg/mL fucoidan, 10 μM BLT-1; uptake 4 h and 22 h
Description: In Vitro Macrophage Uptake of GF9HDL and GA/E31HDL A quantitative in vitro macrophage assay of endo-cytosis of rho B-labeled HDL-mimicking lipopeptide complexes by J774 macrophage was performed as described. (18-20) Briefly, BALB/c murine macrophage J774A.1 cells (ATCC) were cultured at 37° C. with 5% CO2 in Dulbecco's modified Eagle's medium (Cellgro Mediatech, Manassas, Va.) with 2 mM glutamine, 100 U/mL penicillin, 0.1 mg/mL streptomycin, and 10% heat-inactivated fetal bovine serum (Cellgro Mediatech) and grown to approximately 90% confluency in 12-well tissue culture plates (Corning Costar, Corning, N.Y.).
Cells were washed twice using phosphate-buffered saline and lysed using Passive Lysis Buffer (Promega, Madison, Wis.). Rho B fluorescence was measured in the lysates with 544-nm excitation and 590-nm emission filters, using a Fluoroscan Ascent CF fluorescence microplate reader (Thermo Labsystems, Vantaa, Finland). Protein concentrations in the lysates were measured using Bradford reagent (Sigma-Aldrich) and an MRX microplate reader (Dynex Technologies, Chantilly, Va.) according to the manufacturer's recommended protocol.

PVNS patients = settings: cited from earlier work
[1] = test system: mice with collagen-induced arthritis (CIA); assay: collagen-induced arthritis (CIA) in mice; settings: CIA mice
From the text: As described herein, starting on day 24 after immunization, mice with CIA were intraperitoneally (i.p.) administered daily for 14 consecutive days with vehicle (black diamonds), dexamethasone (black squares), GF9 (white circles), GF9-LPC (black circles) and GA/E31-LPC (half black half white circles) at indicated doses. Daily clinical scores were given on a scale of 0-5 for each of the paws on days 24-38. On day 38, mice were killed and the histopathological examination of mouse joints was performed. Histopathological scores of inflammation (I), pannus (P), cartilage damage (CD), bone resorption (BR) and periosteal new bone formation (PBF) are shown. Summed histopathology scores were calculated as the sum of all five histopathological parameters. All results are expressed as the mean±SEM (n=10 mice per group).
Mouse body weight (BW) was measured every other day from day 24 to day 38. Mean BW changes were calculated as a percentage of the difference between beginning (day 24) and final (day 38) BWs of the CIA mice intraperitoneally (i.p.) treated daily for 14 consecutive days with vehicle, dexamethasone, GF9, GF9-LPC and GA/E31-LPC at indicated doses. All results are expressed as the mean±SEM (n=10 mice per group).
Plasma was collected on days 24, 30 and 38 from arthritic mice treated with vehicle (black diamonds), GF9 (white circles), GF9-LPC (black circles) and GA/E31-LPC (half black half white circles). Plasma samples were analyzed for concentrations of interleukin-1b (IL-1b), IL-6, and colony-stimulating factor 1 (CSF1). Results are expressed as the mean±SEM (n=5 mice per group).

[2] = test system: DBA/1 mice with collagen-induced arthritis; assay: Collagen-induced arthritis (CIA) model; settings: 5 mg/kg i.p. daily 14 days, free peptides
Description: Animal studies were performed by Bolder BioPATH (Boulder, Colo., USA). CIA was induced in male 6- to 7-week-old DBA/1 mice by immunization with bovine type II collagen. Briefly, mice were injected intradermally with 100 μl of Freund's complete adjuvant containing 250 μg of bovine type II collagen (2 mg/ml final concentration) at the base of the tail on day 0 and again on day 21. On day 24, mice were randomized by body weight into treatment groups. […] Mice were weighed on study days 24, 26, 28, 30, 32, 34, 36 and 38 (prior to necropsy). Daily clinical scores were given on a scale of 0-5 for each of the paws on days 24-38. On day 38, mice were killed for necropsy.
At the end of study, fore paws, hind paws and knees were harvested, fixed in 10% neutral buffered formalin for 1-2 days, and then decalcified in 5% formic acid for 4-5 days before standard processing for paraffin embedding. Sections (8 μm) were cut and stained with toluidine blue (T blue). Hind paws, fore paws and knees were embedded and sectioned in the frontal plane. Six joints from each animal were processed for histopathological evaluation. The joints were then assessed using 0-5 scale for inflammation, pannus formation, cartilage damage, bone resorption and periosteal new bone formation. A summed histopathology score (sum of five parameters, 0-25 scale) was also determined.
Animal studies were performed by Bolder BioPATH (Boulder, Colo., USA). CIA was induced in male 6- to 7-week-old DBA/1 mice by immunization with bovine type II collagen. Briefly, mice were injected intradermally with 100 μl of Freund's complete adjuvant containing 250 μg of bovine type II collagen (2 mg/ml final concentration) at the base of the tail on day 0 and again on day 21. On day 24, mice were randomized by body weight into treatment groups. […] Starting day 24, mice were injected i.p. intraperitoneally daily for 14 consecutive days with 5 mg/kg G-KV21, G-HV21, G-TE21, M-TK32 and M-VE32 or with PBS (vehicle). Mice were weighed on study days 24, 26, 28, 30, 32, 34, 36 and 38 (prior to necropsy). Daily clinical scores were given on a scale of 0-5 for each of the paws on days 24-38. On day 38, mice were killed for necropsy.

TGCT patients = settings: cited from earlier work
[3] = test system: Hepa 1-6 syngeneic hepatocellular carcinoma; settings: orthotopic Hepa 1-6, Wu et al. 2019, cited from earlier work
human cancer xenografts = assay: PTX-TREM-1/TRIOPEP tumor suppression in human cancer xenografts; format: in vivo; settings: free and SLP-bound form
From the text: Tumor suppression studies using PTX-TREM-1/TRIOPEP formulations in free or SLP-bound form can be performed in animal models of cancer similarly as described herein (see e.g., the examples 7 and 8). Female 6-8 week old NU/J mice can be obtained from the Jackson Laboratory (Bar Harbor, Me.) Human cancer cell lines including but not limited to human carcinoma, human pancreas or human breast cancer cell lines can be obtained from ATCC. […] Human cancer xenografts are established by injecting subcutaneously into the right flanks certain amounts of viable cells per mouse. […] When tumor grows to approximately 125 mm^3 (100-150 mm^3), animals are pair-matched by tumor size into treatment and control groups. Either PTX (TAXOL®; 30 mg/kg PTX) or PTX-TREM-1/TRIOPEP formulations in free (60 mg/kg PTX) or SLP-bound (30 mg/kg PTX) are intravenously administered to the animals via tail vein. Clinical observations, body weights and tumor volume measurements are made twice a week once tumors become measureable. It should be noted that TAXOL® is formulated with a detergent Cremophor that in itself is cytotoxic and is also the source of numerous side effects during chemotherapy. The Cremophor content of TAXOL® is about 80× that of paclitaxel per ml.

[4] = molecular target: T1, TREM-1 (triggering receptor expressed on myeloid cells-1) on murine J774A.1 macrophages (mouse, UniProt Q9JKE2 21-230); assay: confocal immunofluorescence on macrophages, labelled peptide against TREM-1 staining; colocalisation only, no direct binding assay
T1 construct: whole, on cells; the cells are murine
T1 sequence (looked up): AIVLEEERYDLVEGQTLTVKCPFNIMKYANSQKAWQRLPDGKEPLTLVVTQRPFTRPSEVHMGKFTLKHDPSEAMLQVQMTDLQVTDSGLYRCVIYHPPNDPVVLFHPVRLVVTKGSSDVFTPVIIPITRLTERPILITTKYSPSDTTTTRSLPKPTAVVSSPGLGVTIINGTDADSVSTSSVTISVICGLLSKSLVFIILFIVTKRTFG
Description: (§1) Immunofluorescence analysis of TREM-1 and TREM-1/TRIOPEP in the cell membrane was performed using the standard, well-known in the art methods as described in Shen and Sigalov J Cell Mol Med 2017, 21:2524-2534, and Rojas et al. 2018, herein incorporate by reference.
(§2) BALB/c murine macrophage J774A.1 cells were grown at 37° C. in six-well tissue culture plates containing glass coverslips. After reaching target confluency of approximately 50%, cells were incubated for 6 h at 37° C. with Dylight 488-labeled GF9 or TREM-1/TRIOPEP-sSLP that contained Dylight 488-labeled GE31. TREM-1 staining was performed was performed using an Alexa 647-labeled rat anti-mouse TREM-1 antibody (Bio-Rad, Hercules, Calif.). ProLong Gold Antifade DAPI (4′,6′-diamidino-2-phenylindole) mounting medium was used to mount coverslips, and the slides were photographed using an Olympus BX60 fluorescence microscope. Confocal imaging was performed with a Leica TCS SP5 II laser scanning confocal microscope.

[5] = molecular target: T1, TREM-1 (triggering receptor expressed …); assay: confocal immunofluorescence on macrophages; colocalisation only, no direct binding assay
Description: as §1, §2

Q: With `CCCCCCC1CCCC1=NNC(N)=S` (stereo not shown) [BLT-1, Blocker of lipid transport 1, reference compound] as the molecule, how does the “effect of scavenger receptor inhibitor on macrophage uptake of GF9-HDL and GA/E31-HDL” value (“effect of scavenger receptor inhibitor” below) (J774 macrophages) read?
A: similarly inhibited the uptake of the complexes at both time points but to a lesser extent

Q: For `Cc1ccc(NC(=O)c2ccc(CN3CCN(C)CC3)cc2)cc1Nc1nccc(-c2cccnc2)n1` [Imatinib], which symptomatic improvement (PVNS patients; 16 of 22 patients assessable for symptoms) is on record?
A: 73%

Q: What about the “overall response rate per RECIST” value (PVNS patients; 27 evaluable patients, Cassier et al. 2012) of the same molecule?
A: 19%

Q: And the stable disease (PVNS patients; Twenty of 27 patients)?
A: 74%

Q: Which “tolerability in arthritic mice (body weight changes)” value ([1]; day 24 to day 38) does the source give for `CSCC[C@H](NC(=O)[C@H](CCC(=O)O)NC(=O)[C@H](CCC(=O)O)NC(=O)[C@H](CCC(N)=O)NC(=O)[C@H](Cc1c[nH]c2ccccc12)NC(=O)[C@H](CCCCN)NC(=O)[C@H](CCCCN)NC(=O)[C@H](CCC(N)=O)NC(=O)[C@H](Cc1ccccc1)NC(=O)[C@H](CC(=O)O)NC(=O)[C@H](CC(=O)O)NC(=O)[C@H](CC(C)C)NC(=O)[C@H](Cc1ccc(O)cc1)NC(=O)[C@@H]1CCCN1C(=O)[C@H](Cc1ccccc1)NC(=O)[C@H](Cc1ccc(O)cc1)NC(=O)[C@H](CCCCN)NC(=O)[C@H](CC(C)C)NC(=O)[C@@H](NC(=O)[C@@H]1CCCN1C(=O)[C@@H](NC(=O)[C@H](CCCCN)NC(=O)[C@H](Cc1c[nH]c2ccccc12)NC(=O)[C@@H](N)CCSC)[C@@H](C)O)[C@@H](C)O)C(=O)N[C@@H](CCC(=O)O)C(=O)N[C@@H](CC(C)C)C(=O)N[C@@H](Cc1ccc(O)cc1)C(=O)N[C@@H](CCCNC(=N)N)C(=O)N[C@@H](CCC(N)=O)C(=O)N[C@@H](CCCCN)C(=O)N[C@H](C(=O)N[C@@H](CCC(=O)O)C(=O)O)C(C)C` [M-VE32] (H-MWKTPTLKYFPYLDDFQKKWQEEMELYRQKVE-OH) here?
A: well-tolerated by arthritic mice

Q: What about the “arthritis (clinical arthritis score)” value ([1]; treatment days 24-38) of the same molecule?
A: ameliorate the disease

Q: What about the “CIA severity; bone and cartilage damage” value [2] of the same molecule?
A: ameliorates CIA and protects against bone and cartilage damage

Q: For `FC(F)(F)c1ccc(CNc2ccc(Cc3c[nH]c4ncc(Cl)cc34)cn2)cn1` [Pexidartinib], which tumor volume (TGCT patients; Phase 2 study) is on record?
A: prolonged regression in tumor volume in most patients

Q: And the liver toxicity (TGCT patients; Phase 3 study suspended)?
A: two reported cases of nonfatal, serious liver toxicity

Q: What about the partial response (TGCT patients; extension study, 23 patients, Tap et al. 2015) of the same molecule?
A: 12 patients

Q: And the stable disease (TGCT patients; extension study, 23 patients)?
A: 7 patients

Q: For `C=C1[C@@H](C)[C@H]2[C@H](Cc3ccccc3)NC(=O)[C@]23[C@H](OC(C)=O)/C=C/[C@@](C)(O)C(=O)[C@@H](C)C/C=C/[C@H]3[C@@H]1O` [cytochalasin D, reference compound], which “effect of scavenger receptor inhibitor” value (J774 macrophages) is on record?
A: significantly inhibited

Q: Which “tumor growth (and survival), standalone treatment” value [3] does the source give for “GLLSGSLVF [mGF9-G, control murine GF9-G peptide, reference compound]” here?
A: do not affect tumor growth and survival

Q: With GLLSKSLVF [mGF9, murine GF9 peptide] as the molecule, how does the “tumor growth and survival, combined with anti-PD-L1 antibody” value ([3]; 25 mg/kg i.p. daily) read?
A: synergistically inhibits tumor growth and improves survival

Q: Which “anticancer activity (tumor inhibition, survival rate) as compared to PTX” value (human cancer xenografts) does the source give for “PTX-GFLSKSLVFPLGEEMRDRARAHVDALRTHLA ({PTX}-GFLSKSLVFPLGEEMRDRARAHVDALRTHLA; reading uncertain; also: printed as PTX-GFLSKSLVFPLGEEMRDRARAHVDALRTHLA) [PTX-TREM-1/TRIOPEP]” here?
A: anticipated to have a significantly higher anticancer activity

Q: And the “tolerability in cancer mice as compared to PTX” value (human cancer xenografts)?
A: anticipated to be substantially better tolerated by cancer mice

Q: For fucoidan [reference compound], which “effect of scavenger receptor inhibitor” value (J774 macrophages) is on record?
A: substantially suppressed endocytosis of TREM-1 inhibitor complexes at 22 hours but not at 4 hours

B1: TREM-1-related trifunctional peptide (TREM-1/TRIOPEP) GE31, methionine sulfoxidized (peptide)
peptide: GFLSKSLVFPYLDDFQKKWQEE[Met(O)]ELYRQKVE
modifications: not fully specified; printed as GFLSKSLVFPYLDDFQKKWQEEM(O)ELYRQKVE; also: delivered in spherical synthetic lipopeptide particles (TREM-1/TRIOPEP-sSLP)
notes: In the cytokine assays it was used as an equimolar mixture with GA31; also called TREM-1 modulatory peptide GE31
Q: Does B1 bind [4]?
A: binds

B2: TREM-1 inhibitory peptide GF9 (GFLSKSLVF, human TREM-1 213-221) (peptide)
peptide: GFLSKSLVF
modifications: not fully specified
notes: also called TREM-1 modulatory peptide GF9
Q: Does B2 bind [5]?
A: binds
